Experimental data from BigSolDB 2.1.

Oc1cccc(/C=N\NC(=S)NC2CCCCC2)c1
Conditions | solubility (mole fraction)
in PEG-400, 298.15 K | 0.071
in PEG-400, 308.15 K | 0.0774
in PEG-400, 318.15 K | 0.0845
in PEG-400, 328.15 K | 0.0929
in PEG-400, 338.15 K | 0.101

solubility (mole fraction)
Conditions | in ethanol | in ethyl acetate | in ethylene glycol | in isopropanol | in propylene glycol | in transcutol | in water
298.15 K | 0.0135 | 0.0104 | 0.00185 | 0.0302 | 0.0319 | 0.0938 | 3.9e-07
308.15 K | 0.0141 | 0.0117 | 0.00225 | 0.0313 | 0.0332 | 0.0978 | 5.85e-07
318.15 K | 0.0149 | 0.0132 | 0.0029 | 0.0323 | 0.0345 | 0.102 | 9.09e-07
328.15 K | 0.0156 | 0.0147 | 0.00358 | 0.0335 | 0.036 | 0.106 | 1.36e-06
338.15 K | 0.0164 | 0.0167 | 0.00454 | 0.0345 | 0.0376 | 0.111 | 1.88e-06
